Here are results for 7 compounds from patent US20190070124A1, “COMPOSITIONS OF CB2 RECEPTOR SELECTIVE AGONISTS FOR TREATMENT OF MENTAL DISORDERS” (priority 2016, published 2019).

Structures are written as SMILES. Entries after “also recorded” stand apart in the source; their conditions may differ.

For data set [1], the system named is DOI-induced psychotic-like behaviour. Format: in vivo, mice.
For a further data set, the target named is cannabinoid receptor CB2 (Homo sapiens, UniProt P34972). To be noted: cited from earlier work.
Chain of cannabinoid receptor CB2 (P34972 whole entry): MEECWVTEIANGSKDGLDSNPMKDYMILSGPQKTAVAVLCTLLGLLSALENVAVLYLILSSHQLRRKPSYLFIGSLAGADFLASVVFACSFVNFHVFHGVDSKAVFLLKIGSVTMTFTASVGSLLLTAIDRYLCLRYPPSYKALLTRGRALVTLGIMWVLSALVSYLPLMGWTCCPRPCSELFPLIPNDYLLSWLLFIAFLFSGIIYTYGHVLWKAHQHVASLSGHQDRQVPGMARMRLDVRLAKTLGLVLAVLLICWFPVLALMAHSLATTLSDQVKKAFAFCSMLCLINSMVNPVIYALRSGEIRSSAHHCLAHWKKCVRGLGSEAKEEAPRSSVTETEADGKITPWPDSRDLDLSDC
Data set [2] relates to murine model of schizophrenia. Kind of data set: Open-field test (ambulation, rearing, grooming) in the PCP mouse model.
Procedure: Mice were assessed for hyperactivity behavior on postnatal day 16 (FIG. 2). Mice were placed in the center of a transparent glass cube cage 30×40 X31 cm divided into squares of 7.5×7.5 cm. The number of squares and rearing activity were counted for 8 min.
Mice were assessed for hyperactivity behavior on postnatal day 64-66. Mice were placed in the center of a transparent glass cube cage 30×40 X31 cm divided into squares of 7.5×7.5 cm. The number of squares and rearing activity were counted for 8 min.
The conditions of data set [3]: Skold et al. 2006; cited from earlier work.
A further data set has as its target CB2 receptor (Homo sapiens, UniProt P34972). Particulars: Chicca A. et al 2014; cited from earlier work.
The conditions of data set [4]: Hanus et al 1999, cited from earlier work.
For data set [5], the system named is murine model of schizophrenia. Kind of data set: Prepulse inhibition (PPI) of the startle reflex in the PCP mouse model. Format: in vivo, mice. Particulars: age 7-8 weeks. Here is the method:
In this experimental model, a weak stimulus (74-90 dB tone) inhibited the subsequent response to a strong stimulus (120 dB tone). Reduced prepulse inhibition of the startle reflex (PPI) was taken as an index of the positive symptoms of schizophrenia (Josselyn and Vaccarino, 1998).
PPI was assessed similarly to the method described by Varty et al. In the employed model, mice were placed in a startle chamber and allowed to acclimate for 5 min. A loudspeaker produced a 65 dB background white noise or the various acoustic pre-pulse stimuli (dB): 74, 78, 82, 86, and 90 (20 ms). A 120 dB (40 ms) stimulus was given first to induce a response to startle. The response of the mouse was transduced and stored by a computer. Each test session lasted for 11 min and consisted of 5 presentations of each of the trial types presented in random order and separated by 15 second intervals. The amount of prepulse inhibition was calculated as % PPI=[1−(startle response for prepulse+pulse)/(startle response for pulse alone)]×100.
The % PPI indicates of level of disruption of the sensorimotor gating system in schizophrenia but also serves as an indicator of memory function. The % PPI after administration of PCP and treatment of BCP in the PPI test also serve as an index of memory function, further supporting the function of the sensorimotor system.

Data set [6] relates to murine model of schizophrenia. Kind of data set: Elevated Plus Maze test in the PCP mouse model. Format: in vivo, mice. Particulars: age 13 weeks; PCP 5 mg/kg injected postnatally. Here is the method: Anxiety as measured by the paucity of time spent on the two, anxiety-provoking, open arms (as opposed to the two enclosed arms) of an “Elevated Plus Maze” was used as a parameter of negative symptoms of schizophrenia (Josselyn and Vaccarino, 1998). The plus maze was elevated 50 cm above the table top. Behavior of each mouse was recorded for 5 min by a video camera and scored using the “EthoVision” software (Noldus Information Technology, Wageningen, The Netherlands), measuring the number of entries as well as the amount of time spent in each arm, open or closed. Increased time spent in the closed arms indicated increased anxiety. Increased time spent in the opened arms indicated anxiolytic behavior (reduced stress).

The test system of data set [7] is murine model of schizophrenia. Kind of data set: PhenoTyper cage behaviour in the PCP mouse model. Format: in vivo, mice. Particulars: PCP 5 mg/kg injected postnatally.
A short description of data set [8]: Body weight in the neonatal PCP mouse model of schizophrenia. Particulars: PCP 5 mg/kg injected postnatally.
In the next data set the target is CYP2D6 (Homo sapiens, UniProt P10635). The data set can be described thus: CYP450 enzymatic metabolism in human liver microsomes. Particulars: human liver microsomes 0.1 mg/mL, 20 min, 37 C. As to the method:
CYP450 dependent activities were determined using a known substrate. […] A known inhibitor, such as quinidine, tested at a single concentration 3.00 μM was included as positive control. Incubation mixture containing human liver microsomes (0.1 mg/mL), substrate (5 μM) and standard inhibitor or test compound were warmed at 37 C for 10 minutes. Reactions were initiated by addition of the NADPH (1 mM) and the mixture was incubated for 20 minutes at 37° C. water bath. The organic solvent in the reaction mixture was DMSO. After incubation, ice cold acetonitrile was added to terminate the reaction. Generation of metabolite from the substrate reactions was determined by LC-MS/MS and assessed based on peak area ratios of analyte/IS. Mean was used to calculate the extent of inhibition (expressed as % of control activity).

As usually defined, the Ki is a measure of affinity in units of concentration, obtained from inhibition or displacement.

Chain of CB2 receptor (P34972 whole entry): as above
Chain of CYP2D6 (P10635 whole entry): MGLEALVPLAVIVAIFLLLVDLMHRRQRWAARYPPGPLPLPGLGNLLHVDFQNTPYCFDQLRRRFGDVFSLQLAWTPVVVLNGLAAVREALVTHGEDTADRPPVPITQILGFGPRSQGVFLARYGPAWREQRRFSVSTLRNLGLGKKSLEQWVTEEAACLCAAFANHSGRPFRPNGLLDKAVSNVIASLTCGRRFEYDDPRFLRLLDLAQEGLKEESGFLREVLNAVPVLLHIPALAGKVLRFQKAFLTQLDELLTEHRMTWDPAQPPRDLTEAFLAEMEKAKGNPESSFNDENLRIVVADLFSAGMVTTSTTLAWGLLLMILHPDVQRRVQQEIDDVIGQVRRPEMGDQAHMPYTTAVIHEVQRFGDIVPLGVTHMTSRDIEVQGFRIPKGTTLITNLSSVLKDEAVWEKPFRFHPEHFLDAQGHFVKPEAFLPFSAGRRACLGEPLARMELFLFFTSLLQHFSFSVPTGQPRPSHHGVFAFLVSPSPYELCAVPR

`COc1cc(CC(C)N)c(OC)cc1I.Cl` (single isomer, unassigned; (-)) [DOI, (−)-1-(2,5-Dimethoxy-4-iodophenyl)-2-aminopropane hydrochloride, reference compound]: the “grooming response, DOI vs control” value in [1] (DOI injected intraperitoneally to mice, hydrochloride) is “significantly increased the grooming response”.
For `COc1ccc(C(=O)c2c(C)n(CCN3CCOCC3)c3cc(I)ccc23)cc1` [AM630, 6-Iodopravadoline, reference compound], the Ki at cannabinoid receptor CB2 was 32.1 nM. In data set [2] (PND 17, male mice, AM630 10 mg/kg co-injected with BCP 10 mg/kg 1 h after PCP), the “open-field ambulation and rearing, reversal of the BCP effect” value is “reversed the effects of BCP on ambulation and rearing behaviors; also recorded: not significantly different from these of PCP-treated mice; also recorded: reversed the effect of BCP on PCP-induced inhibition of ambulation and rearing”.
For `C=C1CC[C@H]2O[C@]2(C)CC[C@@H]2[C@@H]1CC2(C)C` [BCP oxide, Caryophyllene oxide], in [3], the allergenicity entry is “found to be an allergen”. Further, the CB2 receptor binding result at CB2 receptor is “inactivity”.
On to `CCCCCCC(C)(C)c1cc(OC)c([C@@H]2C=C(CO)[C@@H]3C[C@H]2C3(C)C)c(OC)c1` [HU-308, [(1R,2R,5R)-2-[2,6-dimethoxy-4-(2-methyloctan-2-yl)phenyl]-7,7-dimethyl-4-bicyclo[3.1.1]hept-3-enyl]methanol], for which, in data set [4], the “body weight of adult mice” value is recorded as “does not modulate body weight of adult mice” and the psychoactivity in vivo result is reported as “non-psychoactive agent in vivo”. Further, the open field assay entry in data set [4] (similar age of mice (about PND 63)) is recorded as “no effects of HU-308 in the open field assay”. Further, in data set [5] (HU-308 5 mg/kg injected 1 h after PCP postnatally (Cremophor EL:ethanol:saline), 5 mg/kg), the “% PPI” value was “reversed the effect of PCP on the % PPI; also recorded: reversed the effect of PCP in the PPI test”. The “time to inhibition of DOI-induced psychotic-like behaviour” value in data set [1] (HU-308 i.p. before DOI) was “already after about one hour”. Moreover, the DOI-induced grooming response result in [1] (HU-308 injected intraperitoneally one to two hours before DOI) is “reverses the effects of the psychedelic drug DOI on behavioral symptoms in a murine model; also recorded: significantly reversed the effect of DOI on grooming response”.
In the case of `c1ccc(C2(N3CCCCC3)CCCCC2)cc1` [PCP, Phencyclidine, reference compound], in data set [6], the “time spent in distal end of the opened arm, females, PCP vs vehicle” value was “reduced the time spent in the distal end of the opened arm” and the “time spent in distal end of the opened arm, males, PCP vs vehicle” value is on record as “increased the time spent in the distal end of the opened arm”. In addition, in data set [5] (PCP 5 mg/kg injected postnatally), the “% prepulse inhibition, PCP vs vehicle” value is recorded as “reduced the percent inhibition; also recorded: significant reduction in their ability to adjust to sound stimulus as compared to vehicle treated mice”. In data set [7] (PND 91), the “frequency of entries to the Hidden Zone, males, PCP vs vehicle” value was “appeared to reduce the frequency of entries to the Hidden Zone in males”; the “frequency of entries to the wheel, PCP vs vehicle” value is given as “reduced the frequency of entries to the wheel”; the “time spent at the Hidden Zone, PCP vs vehicle” value is given as “increased the time spend at the Hidden Zone”. In addition, the “frequency of entries to the Hidden Zone, PCP vs vehicle” value in data set [7] (PND 105) is on record as “increased the frequency of entries to the Hidden Zone”. Moreover, in data set [8] (weight PND 3-17), the “body weight, PCP vs vehicle” value was “significantly reduce the body weight; also recorded: induced a significant reduction in body weight; also recorded: difference between vehicle- and PCP-treated groups in body weight was still significant; also recorded: significantly reduced body weight in male and female mice”. The “body weight, PCP vs vehicle” value in [8] (PND 63) was “no significant difference in the body weight between vehicle-treated mice and PCP-treated mice”. In [2] (PND 16-17, PCP 5 mg/kg injected postnatally), the “open-field ambulation and rearing, PCP vs vehicle” value is “significantly inhibited both ambulation and rearing behaviors”. The “open-field locomotor activity, males, PCP vs vehicle” value in data set [2] (PND 35-37, PCP 5 mg/kg injected postnatally) is reported as “significantly increased the locomotor activity compared with vehicle treatment”.
Turning to `C/C1=C\CC/C(C)=C/CC(C)(C)/C=C/C1` [alpha-humulene], the CB2 receptor binding entry at CB2 receptor is “inactivity”.
In the case of `Cc1nc2n(c(=O)c1CCN1CCC(c3noc4cc(F)ccc34)CC1)CCCC2` [risperidone, Risperidone, reference compound], the “inhibition of CYP2D6 enzymatic activity” value against CYP2D6 is listed as “inhibited the activity of CYP2D6 enzyme”; against CYP2D6 (listed as Risperidone), “inhibited CYP2D6 enzymatic activity”. For the same compound, the “activity in the open field test, male mice” value in data set [2] (postnatal day 64, postnatal PCP 5 mg/kg, oral risperidone 0.5 mg/kg twice a week, PND 43-62) is listed as “reversed the effect of 5 mg/kg PCP on activity in the open field test of male mice at postnatal day 64”.
